This series is described as follows: Pharmacokinetics of 5-MeO-DMT and bufotenine after inhalation of 5-MeO-DMT in subjects. It counts as in vivo, human.

The structures appear in SMILES notation.

As for `COc1ccc2[nH]cc(CCN(C)C)c2c1` [5-MeO-DMT], the detectability in plasma result (3 hours after inhalation, 6, 12, 18 mg) is given as “no longer detectable”. Also, the absorption and distribution result (inhaled) was “rapid absorption and distribution”. The “pharmacokinetic measurements with uptitration dosing schemes compared with single doses” value (uptitration, inhaled) is given as “Substantially similar results”.

These data come from patent US20250213533A1 (GH RESEARCH IRELAND LIMITED, priority 2022, published 2025).
